Measurements published in patent publication US20210402016A1, “RADIOLABELED BOMBESIN-DERIVED COMPOUNDS FOR IN VIVO IMAGING OF GASTRIN-RELEASING PEPTIDE RECEPTOR (GRPR) AND TREATMENT OF GRPR-RELATED DISORDERS” (Provincial Health Services Authority, priority 2018, published 2021).
Like-named read-outs stand apart in the source and are kept apart here.

Assay: Biodistribution in PC-3 tumor-bearing NRG mice (Example 1)
Assay type: in vivo
Settings: male, NRG (NOD.Cg-Rag1tm1Mom Il2rgtm1Wjl/SzJ), mouse, iv, 1.84 MBq, total radioactivity; for tissue uptake at 0.5 h: 30 min p.i.; for tissue uptake at 1 h: 60 min p.i.; for tissue uptake at 2 h: 120 min p.i.
Procedure: The mice were sacrificed by CO2 inhalation at 30 min, 1 h, and 2 h p.i. Blood was collected by cardiac puncture. Organs/tissues were harvested, rinsed with PBS, blotted dry, and weighed. The activity in tissues was assayed by gamma counter and expressed as the percentage injected dose per gram of tissue (% ID/g).

[1] = PC-3 tumor, read-out: Biodistribution PC-3 Tumor, Mean
[2] = adrenals, read-out: Biodistribution Adrenals, Mean
[3] = bone, read-out: Biodistribution Bone, Mean
[4] = brain, read-out: Biodistribution Brain, Mean
[5] = fat, read-out: Biodistribution Fat, Mean
[6] = intestine, read-out: Biodistribution Intestine, Mean
[7] = kidney, read-out: Biodistribution Kidney, Mean
[8] = liver, read-out: Biodistribution Liver, Mean
[9] = lung, read-out: Biodistribution Lung, Mean
[10] = muscle, read-out: Biodistribution Muscle, Mean
[11] = pancreas, read-out: Biodistribution Pancreas, Mean
[12] = seminal glands, read-out: Biodistribution Seminal glands, Mean
[13] = spleen, read-out: Biodistribution Spleen, Mean
[14] = testes, read-out: Biodistribution Testes, Mean
[15] = whole blood, read-out: Biodistribution Blood, Mean

CC(C)C[C@@H](CN1CCC[C@H]1C(N)=O)NC(=O)[C@H](Cc1c[nH]cn1)NC(=O)CNC(=O)[C@@H](NC(=O)[C@H](C)NC(=O)[C@H](Cc1c[nH]c2ccccc12)NC(=O)[C@H](CCC(N)=O)NC(=O)[C@@H](Cc1ccccc1)NC(=O)COCC(=O)Nc1ccc(CNC(=O)CN2CCN(CC(=O)O)CCN(CC(=O)O)CCN(CC(=O)O)CC2)cc1)C(C)C [^68Ga-ProBOMB1, metal not drawn]
tissue uptake at 0.5 h [1]: 4.62 %ID/g
tissue uptake at 1 h [1]: 8.17 %ID/g
tissue uptake at 2 h [1]: 8.31 %ID/g
tissue uptake at 0.5 h [2]: 0.95 %ID/g
tissue uptake at 1 h [2]: 0.65 %ID/g
tissue uptake at 2 h [2]: 1.23 %ID/g
tissue uptake at 0.5 h [3]: 0.22 %ID/g
tissue uptake at 1 h [3]: 0.26 %ID/g
tissue uptake at 2 h [3]: 0.39 %ID/g
tissue uptake at 0.5 h [4]: 0.02 %ID/g
tissue uptake at 1 h [4]: 0.02 %ID/g
tissue uptake at 2 h [4]: 0.03 %ID/g
tissue uptake at 0.5 h [5]: 0.17 %ID/g
tissue uptake at 1 h [5]: 0.06 %ID/g
tissue uptake at 2 h [5]: 0.07 %ID/g
tissue uptake at 0.5 h [6]: 2.63 %ID/g
tissue uptake at 1 h [6]: 2.47 %ID/g
tissue uptake at 2 h [6]: 1.68 %ID/g
tissue uptake at 0.5 h [7]: 2.83 %ID/g
tissue uptake at 1 h [7]: 1.4 %ID/g
tissue uptake at 2 h [7]: 0.78 %ID/g
tissue uptake at 0.5 h [8]: 1.93 %ID/g
tissue uptake at 1 h [8]: 1.21 %ID/g
tissue uptake at 2 h [8]: 0.75 %ID/g
tissue uptake at 0.5 h [9]: 0.54 %ID/g
tissue uptake at 1 h [9]: 0.35 %ID/g
tissue uptake at 2 h [9]: 0.25 %ID/g
tissue uptake at 0.5 h [10]: 0.36 %ID/g
tissue uptake at 1 h [10]: 0.09 %ID/g
tissue uptake at 2 h [10]: 0.08 %ID/g
tissue uptake at 0.5 h [11]: 10.3 %ID/g
tissue uptake at 1 h [11]: 4.68 %ID/g
tissue uptake at 2 h [11]: 1.55 %ID/g
tissue uptake at 0.5 h [12]: 0.17 %ID/g
tissue uptake at 1 h [12]: 1.08 %ID/g
tissue uptake at 2 h [12]: 0.43 %ID/g
tissue uptake at 0.5 h [13]: 0.5 %ID/g
tissue uptake at 1 h [13]: 0.44 %ID/g
tissue uptake at 2 h [13]: 0.31 %ID/g
tissue uptake at 0.5 h [14]: 0.31 %ID/g
tissue uptake at 1 h [14]: 0.11 %ID/g
tissue uptake at 2 h [14]: 0.09 %ID/g
tissue uptake at 0.5 h [15]: 1.06 %ID/g
tissue uptake at 1 h [15]: 0.4 %ID/g
tissue uptake at 2 h [15]: 0.13 %ID/g
